Test results taken from US10160755B2 (Plexxikon Inc., priority 2015, dated 2018).

target: T1, BA/F3-FLT3-ITD + F691L cells (Homo sapiens, UniProt P36888, F691L, cells depend on it, form not given); test: BA/F3-FLT3-ITD + F691L cell proliferation assay (CellTiter-Glo); type: cell-based, murine; settings: BaF3 FLT3 ITD/F691L cells; read-out: Cell Activity (IC50 μM) BaF3_FLT3_ITD/F691L
T1 sequence (P36888 1-993 F691L): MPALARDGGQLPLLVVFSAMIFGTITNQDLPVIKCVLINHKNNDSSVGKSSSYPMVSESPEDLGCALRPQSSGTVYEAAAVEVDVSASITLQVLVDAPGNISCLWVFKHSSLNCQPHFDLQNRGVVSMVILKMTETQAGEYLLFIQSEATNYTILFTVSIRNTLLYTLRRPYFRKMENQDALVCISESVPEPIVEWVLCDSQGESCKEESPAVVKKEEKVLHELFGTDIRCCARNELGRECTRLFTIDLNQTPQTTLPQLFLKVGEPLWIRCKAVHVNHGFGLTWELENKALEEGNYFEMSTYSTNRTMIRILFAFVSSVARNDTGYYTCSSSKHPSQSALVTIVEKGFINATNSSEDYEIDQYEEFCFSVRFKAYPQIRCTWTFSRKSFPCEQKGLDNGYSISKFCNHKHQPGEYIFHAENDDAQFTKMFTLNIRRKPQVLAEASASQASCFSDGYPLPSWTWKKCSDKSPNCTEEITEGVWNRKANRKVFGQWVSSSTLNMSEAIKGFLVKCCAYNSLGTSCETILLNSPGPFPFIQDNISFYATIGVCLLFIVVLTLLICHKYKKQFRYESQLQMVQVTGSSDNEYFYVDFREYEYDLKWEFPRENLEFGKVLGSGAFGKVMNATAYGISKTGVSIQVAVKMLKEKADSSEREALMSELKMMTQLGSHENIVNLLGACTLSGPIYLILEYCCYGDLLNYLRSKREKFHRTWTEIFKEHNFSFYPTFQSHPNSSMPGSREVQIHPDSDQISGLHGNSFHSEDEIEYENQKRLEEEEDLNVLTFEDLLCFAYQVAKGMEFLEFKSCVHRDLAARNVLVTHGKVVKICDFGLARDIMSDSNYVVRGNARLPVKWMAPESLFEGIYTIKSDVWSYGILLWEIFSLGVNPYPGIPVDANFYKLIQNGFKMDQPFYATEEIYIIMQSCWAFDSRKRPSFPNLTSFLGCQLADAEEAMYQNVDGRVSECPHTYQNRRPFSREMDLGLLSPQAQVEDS
How it was run: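 Three-day growth assay, IC50 from CellTiter-Glo ATP luminescence vs concentration. Compounds at 10 to 0.0046 μM (1:3 steps, final DMSO 0.2%) on 1×10^4 cells/well. Cells are IL-3-independent BA/F3 lines engineered to express full-length FLT3-ITD with the D835Y or the F691L mutation.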

SMILES	GI50 [µM]
COC(=O)N1CCCC(n2cnc3ccc(-c4c[nH]c5ncc(-c6ccnc(OC)c6)nc45)cc32)C1 (centres unmarked) [P-261, methyl 3-(6-(2-(2-methoxypyridin-4-yl)-5H-pyrrolo[2,3-b]pyrazin-7-yl)-1H-benzo[d]imidazol-1-yl)piperidine-1-carboxylate]	0.0001 to 1
CC(C)(C)n1cnc2ccc(-c3c[nH]c4ncc(-c5cnc(N6CCOCC6)nc5)cc34)cc21 [P-266, 4-[5-[3-(3-tert-butylbenzimidazol-5-yl)-1H-pyrrolo[2,3-b]pyridin-5-yl]pyrimidin-2-yl]morpholine]	0.0001 to 1
COc1cc(-c2cnc3[nH]nc(-c4ccc5ncn(C(C)(C)C)c5c4)c3c2)ccn1 [P-272, 3-(1-(tert-butyl)-1H-benzo[d]imidazol-6-yl)-5-(2-methoxypyridin-4-yl)-1H-pyrazolo[3,4-b]pyridine]	0.0001 to 1
C#Cc1cnc2[nH]cc(-c3ccc4ncn(C(C)(C)C)c4c3)c2n1 [P-259, 7-(3-tert-butylbenzimidazol-5-yl)-2-ethynyl-5H-pyrrolo[2,3-b]pyrazine]	0.0001 to 1
O=S1(=O)CCCN1c1cccc(-c2cnc3[nH]cc(-c4ccc5ncn(C6CCCNC6)c5c4)c3n2)c1 (centres unmarked) [P-273, 2-[3-[7-[3-(3-piperidyl)benzimidazol-5-yl]-5H-pyrrolo[2,3-b]pyrazin-2-yl]phenyl]-1,2-thiazolidine 1,1-dioxide]	0.0001 to 1
CN(c1cccc(-c2cnc3[nH]cc(-c4ccc5ncn(C)c5c4)c3n2)c1)S(C)(=O)=O [P-150, N-methyl-N-[3-[7-(3-methylbenzimidazol-5-yl)-5H-pyrrolo[2,3-b]pyrazin-2-yl]phenyl]methanesulfonamide]	0.0001 to 1
FC(F)(F)Cn1cc(-c2cnc3[nH]cc(-c4ccc5ncn(C6CCCNC6)c5c4)c3n2)cn1 (centres unmarked) [P-258, 7-[3-(3-piperidyl)benzimidazol-5-yl]-2-[1-(2,2,2-trifluoroethyl)pyrazol-4-yl]-5H-pyrrolo[2,3-b]pyrazine]	0.0001 to 1
COc1ncccc1C#Cc1cnc2[nH]cc(-c3ccc4ncn(C(C)(C)C)c4c3)c2n1 [P-250, 7-(3-tert-butylbenzimidazol-5-yl)-2-[2-(2-methoxy-3-pyridyl)ethynyl]-5H-pyrrolo[2,3-b]pyrazine]	0.0001 to 1
COc1cc(-c2cnc3[nH]cc(-c4ccc5ncn([C@@H]6CCCNC6)c5c4)c3n2)ccn1 [P-254, 2-(2-methoxy-4-pyridyl)-7-[3-[(3R)-3-piperidyl]benzimidazol-5-yl]-5H-pyrrolo[2,3-b]pyrazine]	0.0001 to 1
N#Cc1cccc(NC(=O)c2cnc3[nH]cc(-c4ccc5ncn(C6CCCNC6)c5c4)c3c2)c1 (centres unmarked) [P-219, N-(3-cyanophenyl)-3-(1-(piperidin-3-yl)-1H-benzo[d]imidazol-6-yl)-1H-pyrrolo[2,3-b]pyridine-5-carboxamide]	1 to 10
CC(C)(C)n1cnc2ccc(-c3c[nH]c4ncc(-c5cnn(CC(F)(F)F)c5)nc34)cc21 [P-256, 7-(3-tert-butylbenzimidazol-5-yl)-2-[1-(2,2,2-trifluoroethyl)pyrazol-4-yl]-5H-pyrrolo[2,3-b]pyrazine]	0.0001 to 1
CC(C)(C)n1cnc2ccc(-c3c[nH]c4ncc(C#Cc5cccc(OC(F)(F)F)c5)nc34)cc21 [P-249, 7-(3-tert-butylbenzimidazol-5-yl)-2-[2-[3-(trifluoromethoxy)phenyl]ethynyl]-5H-pyrrolo[2,3-b]pyrazine]	1 to 10
COc1cnc2[nH]cc(-c3ccc4ncn(-c5cccc(C#N)c5)c4c3)c2c1 [P-135, 3-[6-(5-methoxy-1H-pyrrolo[2,3-b]pyridin-3-yl)benzimidazol-1-yl]benzonitrile]	0.0001 to 1
COc1cc(C#Cc2cnc3[nH]cc(-c4ccc5ncn(C6CCCNC6)c5c4)c3c2)ccn1 (centres unmarked) [P-241, 5-[2-(2-methoxy-4-pyridyl)ethynyl]-3-[3-(3-piperidyl)benzimidazol-5-yl]-1H-pyrrolo[2,3-b]pyridine]	0.0001 to 1
FC(F)(F)Oc1cccc(C#Cc2cnc3[nH]cc(-c4ccc5ncn(C6CCCNC6)c5c4)c3n2)c1 (centres unmarked) [P-246, 7-[3-(3-piperidyl)benzimidazol-5-yl]-2-[2-[3-(trifluoromethoxy)phenyl]ethynyl]-5H-pyrrolo[2,3-b]pyrazine]	1 to 10
N#Cc1cccc(C#Cc2cnc3[nH]cc(-c4ccc5ncn(C6CCCNC6)c5c4)c3c2)c1 (centres unmarked) [P-243, 3-[2-[3-[3-(3-piperidyl)benzimidazol-5-yl]-1H-pyrrolo[2,3-b]pyridin-5-yl]ethynyl]benzonitrile]	0.0001 to 1
CC(C)(C)n1cnc2ccc(-c3c[nH]c4ncc(NC(=O)c5cccc(C#N)c5)cc34)cc21 [P-235, N-[3-(3-tert-butylbenzimidazol-5-yl)-1H-pyrrolo[2,3-b]pyridin-5-yl]-3-cyano-benzamide]	0.0001 to 1
COc1cnc2[nH]cc(-c3ccc4ncn(-c5ccc(F)cc5)c4c3)c2c1 [P-103, 1-(4-fluorophenyl)-6-(5-methoxy-1H-pyrrolo[2,3-b]pyridin-3-yl)benzimidazole]	0.0001 to 1
O=S(=O)(c1cccc(-c2cnc3[nH]cc(-c4ccc5ncn(C6CCCNC6)c5c4)c3n2)c1)N1CCCC1 (centres unmarked) [P-237, 7-[3-(3-piperidyl)benzimidazol-5-yl]-2-(3-pyrrolidin-1-ylsulfonylphenyl)-5H-pyrrolo[2,3-b]pyrazine]	0.0001 to 1
COc1ncc(-c2cnc3[nH]cc(-c4ccc5ncn(C6CCCNC6)c5c4)c3n2)cn1 (centres unmarked) [P-264, 2-(2-methoxypyrimidin-5-yl)-7-[3-(3-piperidyl)benzimidazol-5-yl]-5H-pyrrolo[2,3-b]pyrazine]	0.0001 to 1
CC(C)(C)n1cnc2ccc(-c3c[nH]c4ncc(-c5cccc(N6CCCCS6(=O)=O)c5)cc34)cc21 [P-221, 2-[3-[3-(3-tert-butylbenzimidazol-5-yl)-1H-pyrrolo[2,3-b]pyridin-5-yl]phenyl]thiazinane 1,1-dioxide]	0.0001 to 1
COc1cc(-c2cnc3[nH]cc(-c4ccc5ncn(C6CCCNC6)c5c4)c3n2)cc(OC)n1 (centres unmarked) [P-195, 2-(2,6-dimethoxy-4-pyridyl)-7-[3-(3-piperidyl)benzimidazol-5-yl]-5H-pyrrolo[2,3-b]pyrazine]	0.0001 to 1
COc1cnc2[nH]cc(-c3ccc4ncn(-c5cccc(F)c5)c4c3)c2c1 [P-128, 1-(3-fluorophenyl)-6-(5-methoxy-1H-pyrrolo[2,3-b]pyridin-3-yl)benzimidazole]	0.0001 to 1
CC(C)(C)n1cnc2ccc(-c3c[nH]c4ncc(-c5ccc(F)c(C#N)c5)nc34)cc21 [P-230, 5-[7-(3-tert-butylbenzimidazol-5-yl)-5H-pyrrolo[2,3-b]pyrazin-2-yl]-2-fluoro-benzonitrile]	0.0001 to 1
COc1cc(C#Cc2cnc3[nH]cc(-c4ccc5ncn(C(C)(C)C)c5c4)c3c2)ccn1 [P-240, 1-(tert-butyl)-6-(5-((2-methoxypyridin-4-yl)ethynyl)-1H-pyrrolo[2,3-b]pyridin-3-yl)-1H-benzo[d]imidazole]	0.0001 to 1
COc1cc(-c2cnc3[nH]cc(-c4ccc5ncn(C(C)(C)C)c5c4)c3c2)ccn1 [P-106, 1-tert-butyl-6-[5-(2-methoxy-4-pyridyl)-1H-pyrrolo[2,3-b]pyridin-3-yl]benzimidazole]	0.0001 to 1
